Laboratory results published in US12472195B2, “Inhalation formulations of antimicrobial compounds” (priority 2020, dated 2025).
Where two headings read alike, the source gives them in different places.

Legend:
[1] = system: human lung epithelial A549 cells
Procedure: Human lung epithelial cells (A549 cells) were obtained from American Type Culture Collection (ATCC® CCL-185™, Manassas, VA, USA), grown and sub-cultured in Dulbecco's modified Eagle's medium (DMEM) supplemented with 10% fetal bovine serum (FBS). A549 cells (1×10^5 cells/mL, 12-well plate) were seeded in supplemented DMEM at 37° C. in a humidified atmosphere containing 5% CO2 until 80% confluency. All experiments were conducted in three replicates. Cells were treated with 1.0 mM polymyxin B in the presence and absence of tobramycin (1.0, 3.0, 5.0, 10.0 and 20.0 mM), amikacin (5.0 and 20.0 mM), gentamicin (5.0, 10.0 and 20.0 mM) and plazomicin (5.0 and 20.0 mM) in supplemented DMEM (1% FBS); and cell viability were examined at 24h with flow cytometry after staining with propidium iodide.

mouse lung tissue = assay: Lung histology examination after intratracheal administration in mice
Procedure: The animal study was approved by the Animal Ethics Committee of the Monash Institute of Pharmaceutical Sciences, Monash University (Parkville, Victoria, Australia). All experiments were conducted in accordance with the Australian Code of Practice for the Care and Use of Animals for Scientific Purposes. Swiss Albino mice (female; age, 6 weeks; body weight, 20 to 25 g) were obtained from the Monash Animal Research Platform (Clayton, Victoria, Australia). […] The animals were housed individually in metabolic cages and had free access to food and water. Mice were intratracheally administered 10 mg/kg of polymyxin B, 60 mg/kg of tobramycin and the combination of tobramycin with polymyxin B in sterile 0.9% saline three times a day and lung histology examination were conducted in a blind manner.

[2] = mice, intratracheal, three times a day, 10 mg/kg polymyxin B, 60 mg/kg tobramycin, or both

Compound	cell viability ([1]; human, 24 h, 20 mM) [%]	effect on polymyxin B-induced pulmonary toxicity (mouse lung tissue; mouse, in vivo)	cell viability ([1]; 1.0 mM polymyxin B alone, A549 cells, 24h, mean±SD n=3) [%]	area of lung tissue affected by damage (mouse lung tissue; [2])	semi-quantitative score (SQS) of lung histology (mouse lung tissue; [2])
NC[C@H]1O[C@H](O[C@H]2[C@H](O)[C@@H](O[C@H]3O[C@H](CO)[C@@H](O)[C@H](N)[C@H]3O)[C@H](N)C[C@@H]2N)[C@H](N)C[C@@H]1O [Tobramycin, tobramycin]	87.4±1.6	significantly reduced	–	–	–
polymyxin B	–	–	40.7±7.4	25-50%	+2 to +5
